The assay deals with MV-4-11 cells. As to the kind of experiment: Gene expression microarray analysis (Affymetrix PrimeView) and GSEA. To be noted: ProbeSet 11743286_at; LIST D. Also noted: RFU PODN (11730768_x_at) / Fold change /veh PODN (11730768_x_at) / RFU LINC00158 (11744669_a_at) / Fold change /veh LINC00158 (11744669_a_at) / RFU DUSP10 (11751237_a_at) / Fold change /veh DUSP10 (11751237_a_at) / RFU ID3 (11757404_x_at) / Fold change /veh ID3 (11757404_x_at) / RFU PLEKHG5 (11737974_s_at) / Fold change /veh PLEKHG5 (11737974_s_at) / RFU LRRC4B (11730491_at) / Fold change /veh LRRC4B (11730491_at) / RFU GIMAP4 (11747438_a_at) / Fold change /veh GIMAP4 (11747438_a_at) / RFU KRT8 (11758183_x_at) / Fold change /veh KRT8 (11758183_x_at) / RFU CNN1 (11734310_a_at) / Fold change /veh CNN1 (11734310_a_at) / RFU VPS37D (11726825_at) / Fold change /veh VPS37D (11726825_at) / RFU C10orf10 (11716522_x_at) / Fold change /veh C10orf10 (11716522_x_at) / RFU KIR2DL2 /// KIR2DL4 /// KIR2DL5A /// KIR2DL5B /// KIR2DS1 /// KIR2DS2 /// KIR2DS3 /// KIR2DS4 /// KIR3DL3 /// KIR3DL3 /// KIR3DS1 (11738374_at) / Fold change /veh KIR2DL2 /// KIR2DL4 /// KIR2DL5A /// KIR2DL5B /// KIR2DS1 /// KIR2DS2 /// KIR2DS3 /// KIR2DS4 /// KIR3DL3 /// KIR3DL3 /// KIR3DS1 (11738374_at) / RFU C1QL1 (11718748_at) / Fold change /veh C1QL1 (11718748_at) / RFU TMPRSS4 (11747572_a_at) / Fold change /veh TMPRSS4 (11747572_a_at) / RFU HAMP (11756126_x_at) / Fold change /veh HAMP (11756126_x_at) / RFU RNFT2 (11725882_a_at) / Fold change /veh RNFT2 (11725882_a_at) / RFU NR4A2 (11747474_a_at) / Fold change /veh NR4A2 (11747474_a_at) / RFU ABCC12 (11746883_a_at) / Fold change /veh ABCC12 (11746883_a_at) / RFU TMEM136 (11760407_x_at) / Fold change /veh TMEM136 (11760407_x_at) / RFU CLDN22 /// WWC2 (11732394_at) / Fold change /veh CLDN22 /// WWC2 (11732394_at) / RFU HLA-DPB1 (11760878_x_at) / Fold change /veh HLA-DPB1 (11760878_x_at) / RFU SPINT1 (11716480_a_at) / Fold change /veh SPINT1 (11716480_a_at) / RFU GAP43 (11754022_s_at) / Fold change /veh GAP43 (11754022_s_at) / RFU A4GNT (11735810_at) / Fold change /veh A4GNT (11735810_at) / RFU PRB3 (11715151_x_at) / Fold change /veh PRB3 (11715151_x_at) / RFU TUBB4B (11761932_at) / Fold change /veh TUBB4B (11761932_at) / RFU CAPN14 (11732068_a_at) / Fold change /veh CAPN14 (11732068_a_at) / RFU TMCC2 (11721928_a_at) / Fold change /veh TMCC2 (11721928_a_at) / RFU IRGQ (11745062_a_at) / Fold change /veh IRGQ (11745062_a_at) / RFU FAM174B (11720279_a_at) / Fold change /veh FAM174B (11720279_a_at) / RFU TMPRSS4 (11748680_a_at) / Fold change /veh TMPRSS4 (11748680_a_at) / RFU FAM212B (11763350_a_at) / Fold change /veh FAM212B (11763350_a_at) / RFU PLEKHG5 (11743358_a_at) / Fold change /veh PLEKHG5 (11743358_a_at) / RFU ZSCAN30 (11745921_a_at) / Fold change /veh ZSCAN30 (11745921_a_at) / RFU CMKLR1 (11741424_a_at) / Fold change /veh CMKLR1 (11741424_a_at) / RFU LOC101060620 /// MAPK8IP1 (11723275_at) / Fold change /veh LOC101060620 /// MAPK8IP1 (11723275_at) / RFU SPTSSB (11747773_x_at) / Fold change /veh SPTSSB (11747773_x_at) / RFU PRSS12 (11739890_at) / Fold change /veh PRSS12 (11739890_at) / RFU BIN1 (11741810_x_at) / Fold change /veh BIN1 (11741810_x_at) / RFU WNT11 (11732464_a_at) / Fold change /veh WNT11 (11732464_a_at) / RFU C10orf10 (11716521_a_at) / Fold change /veh C10orf10 (11716521_a_at) / RFU C5orf56 (11738089_at) / Fold change /veh C5orf56 (11738089_at) / RFU CYB561 (11721691_x_at) / Fold change /veh CYB561 (11721691_x_at) / RFU ANKRD19P (11752326_a_at) / Fold change /veh ANKRD19P (11752326_a_at) / RFU OR2T12 /// OR2T33 /// OR2T8 (11738714_s_at) / Fold change /veh OR2T12 /// OR2T33 /// OR2T8 (11738714_s_at) / RFU VCAN (11748164_a_at) / Fold change /veh VCAN (11748164_a_at) / RFU JSRP1 (11732532_at) / Fold change /veh JSRP1 (11732532_at) / RFU KRTAP10-11 (11738290_x_at) / Fold change /veh KRTAP10-11 (11738290_x_at) / RFU MYO3A (11730013_a_at) / Fold change /veh MYO3A (11730013_a_at) / RFU EBF3 (11725865_a_at) / Fold change /veh EBF3 (11725865_a_at) / RFU CAMK2N1 (11719241_x_at) / Fold change /veh CAMK2N1 (11719241_x_at) / RFU C5orf56 (11738088_a_at) / Fold change /veh C5orf56 (11738088_a_at) / RFU OLFML3 (11715873_a_at) / Fold change /veh OLFML3 (11715873_a_at) / RFU LOC100653217 /// NTM (11731650_a_at) / Fold change /veh LOC100653217 /// NTM (11731650_a_at) / RFU MAPK11 (11762145_a_at) / Fold change /veh MAPK11 (11762145_a_at) / RFU FIZ1 (11724087_x_at) / Fold change /veh FIZ1 (11724087_x_at) / RFU OASL (11726364_x_at) / Fold change /veh OASL (11726364_x_at) / RFU SOX15 (11748057_x_at) / Fold change /veh SOX15 (11748057_x_at) / RFU CD79A (11719716_a_at) / Fold change /veh CD79A (11719716_a_at) / RFU HIST1H1D (11736915_at) / Fold change /veh HIST1H1D (11736915_at) / RFU CASKIN2 (11723855_a_at) / Fold change /veh CASKIN2 (11723855_a_at) / RFU LOC730098 (11760151_x_at) / Fold change /veh LOC730098 (11760151_x_at) / RFU OR4N2 (11742367_at) / Fold change /veh OR4N2 (11742367_at) / RFU PRRT2 (11749266_a_at) / Fold change /veh PRRT2 (11749266_a_at) / RFU SNX32 (11753110_a_at) / Fold change /veh SNX32 (11753110_a_at) / RFU CDHR5 (11726645_a_at) / Fold change /veh CDHR5 (11726645_a_at) / RFU RCAN1 (11760418_a_at) / Fold change /veh RCAN1 (11760418_a_at) / RFU FAM167A (11723789_a_at) / Fold change /veh FAM167A (11723789_a_at) / RFU FAM26E (11764081_at) / Fold change /veh FAM26E (11764081_at) / RFU ISYNA1 (11749810_s_at) / Fold change /veh ISYNA1 (11749810_s_at) / RFU ACY1 (11761880_at) / Fold change /veh ACY1 (11761880_at) / RFU 11764098_at / Fold change /veh 11764098_at / RFU SAMD14 (11745864_x_at) / Fold change /veh SAMD14 (11745864_x_at) / RFU NPB (11741838_a_at) / Fold change /veh NPB (11741838_a_at) / RFU TMPRSS6 (11731388_a_at) / Fold change /veh TMPRSS6 (11731388_a_at) / RFU KRTAP10-2 (11738614_at) / Fold change /veh KRTAP10-2 (11738614_at) / RFU ARHGAP8 /// PRR5-ARHGAP8 (11727945_x_at) / Fold change /veh ARHGAP8 /// PRR5-ARHGAP8 (11727945_x_at) / RFU KRTAP5-7 /// NADSYN1 (11734609_at) / Fold change /veh KRTAP5-7 /// NADSYN1 (11734609_at) / RFU RASL12 (11751679_a_at) / Fold change /veh RASL12 (11751679_a_at) / RFU CDKN2B (11736163_a_at) / Fold change /veh CDKN2B (11736163_a_at) / RFU PRF1 (11729649_at) / Fold change /veh PRF1 (11729649_at) / RFU, ZNF638 /// ZNF638-IT1 / Fold change vs veh, ZNF638 /// ZNF638-IT1 / RFU, PANK3 / Fold change vs veh, PANK3 / RFU, SH3YL1 / Fold change vs veh, SH3YL1 / RFU, ZEB2 / Fold change vs veh, ZEB2 / RFU, NRIP1 / Fold change vs veh, NRIP1 / RFU, PTTG1IP / Fold change vs veh, PTTG1IP / RFU, CAPN2 / Fold change vs veh, CAPN2 / RFU, MED14 / Fold change vs veh, MED14 / RFU, SNORA58 / Fold change vs veh, SNORA58 / RFU, C1orf63 / Fold change vs veh, C1orf63 / RFU, LRRFIP1 / Fold change vs veh, LRRFIP1 / RFU, NDUFAF7 / Fold change vs veh, NDUFAF7 / RFU, SLC12A2 / Fold change vs veh, SLC12A2 / RFU, IBTK / Fold change vs veh, IBTK / RFU, ESF1 / Fold change vs veh, ESF1 / Fold change vs veh, TMEM50B / RFU, TAOK1 / Fold change vs veh, TAOK1 / RFU, ACBD3 / Fold change vs veh, ACBD3 / RFU, TMA16 / Fold change vs veh, TMA16 / RFU, RWDD3 / Fold change vs veh, RWDD3 / RFU, BCAT1 / Fold change vs veh, BCAT1 / RFU, EDEM3 / Fold change vs veh, EDEM3 / RFU, TMEM33 / Fold change vs veh, TMEM33 / RFU, WDR75 / Fold change vs veh, WDR75 / RFU, AHCTF1 / Fold change vs veh, AHCTF1 / RFU, TFRC / Fold change vs veh, TFRC / RFU, ZDHHC17 / Fold change vs veh, ZDHHC17 / RFU, NOM1 / Fold change vs veh, NOM1 / RFU, ARL8B / Fold change vs veh, ARL8B / RFU, ZBTB11 / Fold change vs veh, ZBTB11 / RFU, TAMM41 / Fold change vs veh, TAMM41 / RFU, KIAA1704 /// LOC100996395 / Fold change vs veh, KIAA1704 /// LOC100996395 / RFU, ING1 / Fold change vs veh, ING1 / RFU, TRMT61B / Fold change vs veh, TRMT61B / RFU, FUBP3 / Fold change vs veh, FUBP3 / RFU, TP53 / Fold change vs veh, TP53 / RFU, TNKS2 / Fold change vs veh, TNKS2 / RFU, ZFP14 / Fold change vs veh, ZFP14 / RFU, ACTR2 / Fold change vs veh, ACTR2 / RFU, PPP3R1 / Fold change vs veh, PPP3R1 / RFU, PIK3R1 / Fold change vs veh, PIK3R1 / RFU, HNRNPA1 / Fold change vs veh, HNRNPA1 / RFU, RNF170 / Fold change vs veh, RNF170 / RFU, ZNF28 / Fold change vs veh, ZNF28 / RFU, RNGTT / Fold change vs veh, RNGTT / RFU, OGT / Fold change vs veh, OGT / RFU, BRD1 / Fold change vs veh, BRD1 / RFU, MARS / Fold change vs veh, MARS / RFU, ZNF655 / Fold change vs veh, ZNF655 / RFU, FAHD1 / Fold change vs veh, FAHD1 / RFU, BDP1 / Fold change vs veh, BDP1 / RFU, LRRCC1 / Fold change vs veh, LRRCC1 / RFU, ARID1A / Fold change vs veh, ARID1A / RFU, ZNF146 / Fold change vs veh, ZNF146 / RFU, ZNF330 / Fold change vs veh, ZNF330 / RFU, GPN3 / Fold change vs veh, GPN3 / RFU, C9orf123 / Fold change vs veh, C9orf123 / RFU, N4BP2L2 / Fold change vs veh, N4BP2L2 / RFU, ARFIP1 / Fold change vs veh, ARFIP1 / RFU, FAM179B / Fold change vs veh, FAM179B / RFU, BCL10 / Fold change vs veh, BCL10 / RFU, UHRF1BP1L / Fold change vs veh, UHRF1BP1L / RFU, BET1 / Fold change vs veh, BET1 / RFU, CNOT2 / Fold change vs veh, CNOT2 / RFU, ZNF268 / Fold change vs veh, ZNF268 / Fold change vs veh, ZNF507 / RFU, DGCR2 / Fold change vs veh, DGCR2 / RFU, WDSUB1 / Fold change vs veh, WDSUB1 / Fold change vs veh, HSP90B1 /// MIR3652 / RFU, ADSS / Fold change vs veh, ADSS / RFU, GK / Fold change vs veh, GK / RFU, ZNF148 / Fold change vs veh, ZNF148 / RFU, TAF9 / Fold change vs veh, TAF9 / RFU, SLC1A5 / Fold change vs veh, SLC1A5 / RFU, SLMO2 / Fold change vs veh, SLMO2 / RFU, ABCC4 / Fold change vs veh, ABCC4 / RFU, LOC101060439 /// RAP1B / Fold change vs veh, LOC101060439 /// RAP1B / RFU, RFX7 / Fold change vs veh, RFX7 / RFU, GTPBP10 / Fold change vs veh, GTPBP10 / RFU, CNEP1R1 / Fold change vs veh, CNEP1R1 / RFU, BIVM-ERCC5 /// ERCC5 / Fold change vs veh, BIVM-ERCC5 /// ERCC5 / RFU, ILF3 / Fold change vs veh, ILF3 / RFU 11762660_at / Fold change /veh 11762660_at / RFU VCAN (11757783_s_at) / Fold change /veh VCAN (11757783_s_at) / RFU DDX43 (11728927_at) / Fold change /veh DDX43 (11728927_at) / RFU KRT8 (11758188_x_at) / Fold change /veh KRT8 (11758188_x_at) / RFU NKD1 (11759106_at) / Fold change /veh NKD1 (11759106_at) / RFU SRD5A1 (11742802_a_at) / Fold change /veh SRD5A1 (11742802_a_at) / RFU TPSAB1 /// TPSB2 (11721975_s_at) / Fold change /veh TPSAB1 /// TPSB2 (11721975_s_at) / RFU GSTM3 (11746129_a_at) / Fold change /veh GSTM3 (11746129_a_at) / RFU IL23R (11737362_x_at) / Fold change /veh IL23R (11737362_x_at) / RFU TMEM51 (11727254_a_at) / Fold change /veh TMEM51 (11727254_a_at) / RFU PIWIL2 (11732686_x_at) / Fold change /veh PIWIL2 (11732686_x_at) / RFU ORM1 (11744905_x_at) / Fold change /veh ORM1 (11744905_x_at) / RFU CCDC152 (11743942_at) / Fold change /veh CCDC152 (11743942_at) / RFU ECM1 (11717891_a_at) / Fold change /veh ECM1 (11717891_a_at) / RFU IL23R (11748794_a_at) / Fold change /veh IL23R (11748794_a_at) / RFU TNFAIP8L3 (11732012_x_at) / Fold change /veh TNFAIP8L3 (11732012_x_at) / RFU MBOAT4 (11741988_at) / Fold change /veh MBOAT4 (11741988_at) / RFU 11764193_at / Fold change /veh 11764193_at / RFU TMEM53 (11763286_at) / Fold change /veh TMEM53 (11763286_at) / RFU MAGEB2 (11727129_at) / Fold change /veh MAGEB2 (11727129_at) / RFU TMEM200A (11744735_a_at) / Fold change /veh TMEM200A (11744735_a_at) / RFU CCDC152 (11751479_a_at) / Fold change /veh CCDC152 (11751479_a_at) / RFU FAM211A (11726209_a_at) / Fold change /veh FAM211A (11726209_a_at) / RFU RGS16 (11746705_a_at) / Fold change /veh RGS16 (11746705_a_at) / RFU VCAN (11755009_s_at) / Fold change /veh VCAN (11755009_s_at) / RFU RHOB (11743442_s_at) / Fold change /veh RHOB (11743442_s_at) / RFU RGS16 (11720943_a_at) / Fold change /veh RGS16 (11720943_a_at) / RFU RGS16 (11720944_at) / Fold change /veh RGS16 (11720944_at) / RFU, VPS4B / Fold change vs veh, VPS4B / RFU, CREB1 / Fold change vs veh, CREB1 / RFU, DNAJC13 / Fold change vs veh, DNAJC13 / RFU, GNAQ / Fold change vs veh, GNAQ / RFU, CDK5R1 / Fold change vs veh, CDK5R1 / RFU, ZRANB3 / Fold change vs veh, ZRANB3 / RFU, CUL4A / Fold change vs veh, CUL4A / RFU, CCNY / Fold change vs veh, CCNY / RFU, UFL1 / Fold change vs veh, UFL1 / RFU, COG3 / Fold change vs veh, COG3 / RFU, DIAPH2 / Fold change vs veh, DIAPH2 / RFU, SKA2 / Fold change vs veh, SKA2 / RFU, AFF3 / Fold change vs veh, AFF3 / RFU, LMF1 / Fold change vs veh, LMF1 / RFU, IPO11 / Fold change vs veh, IPO11 / RFU, DFFB / Fold change vs veh, DFFB / RFU, FOXP1 / Fold change vs veh, FOXP1 / RFU, CARD8 / Fold change vs veh, CARD8 / RFU, STRN3 / Fold change vs veh, STRN3 / RFU, ADK / Fold change vs veh, ADK / RFU, RASSF2 / Fold change vs veh, RASSF2 / RFU, WIPF1 / Fold change vs veh, WIPF1 / RFU, LARP1B / Fold change vs veh, LARP1B / RFU, RASA1 / Fold change vs veh, RASA1 / RFU, RB1 / Fold change vs veh, RB1 / RFU, PPFIA1 / Fold change vs veh, PPFIA1 / RFU, MAT2A / Fold change vs veh, MAT2A / RFU, CCT5 / Fold change vs veh, CCT5 / RFU, WDR92 / Fold change vs veh, WDR92 / RFU, CUX1 / Fold change vs veh, CUX1 / RFU, TTC7A / Fold change vs veh, TTC7A / RFU, TMEM135 / Fold change vs veh, TMEM135 / RFU, DEPTOR / Fold change vs veh, DEPTOR / RFU, CPM / Fold change vs veh, CPM / RFU, DNAJB6 / Fold change vs veh, DNAJB6 / RFU, CACNA2D3 / Fold change vs veh, CACNA2D3 / RFU, DTX4 / Fold change vs veh, DTX4 / RFU, TFCP2 / Fold change vs veh, TFCP2 / RFU, GMCL1 /// GMCL1P1 / Fold change vs veh, GMCL1 /// GMCL1P1 / RFU, AEBP2 / Fold change vs veh, AEBP2 / RFU, SNHG1 /// SNORD22 /// SNORD25 /// SNORD26 /// SNORD27 /// SNORD28 /// SNORD29 /// SNORD31 / Fold change vs veh, SNHG1 /// SNORD22 /// SNORD25 /// SNORD26 /// SNORD27 /// SNORD28 /// SNORD29 /// SNORD31 / Fold change (Aza/veh), C12orf56 (ProbeSet 11735607_a_at) / Fold change (ACY-1035/veh), C12orf56 (ProbeSet 11735607_a_at) / Fold change (Aza/veh), FGFR1OP (ProbeSet 11751329_s_at) / Fold change (ACY-1035/veh), FGFR1OP (ProbeSet 11751329_s_at) / Fold change (Aza/veh), VPS36 (ProbeSet 11739960_a_at) / Fold change (ACY-1035/veh), VPS36 (ProbeSet 11739960_a_at) / RFU SYPL1 (11715823_x_at) / Fold change /veh SYPL1 (11715823_x_at) / RFU IGFBP7 (11715501_s_at) / Fold change /veh IGFBP7 (11715501_s_at) / RFU REEP3 (11722064_at) / Fold change /veh REEP3 (11722064_at) / RFU IGLL1 (11728026_x_at) / Fold change /veh IGLL1 (11728026_x_at): dose or concentration left out as unconfirmed. In kind it is cell-based, human.

Each structure is given as a SMILES string.

On to `Nc1ncn([C@@H]2O[C@H](CO)[C@@H](O)[C@H]2O)c(=O)n1` [azacitidine], for which the “RFU, DTX4” value was found to be 164.39 RFU.
